For seven compounds, IC50 and Ki results are on record in patent US9738626B2, “Antagonists of prostaglandin EP3 receptor” (Pfizer Inc., priority 2014, dated 2017).

Each structure is given as a SMILES string. pIC50, pKi: −log10 of the molar value.

In test [1] the target is human prostaglandin E3 receptor (EP3) (Homo sapiens (Human), UniProt P43115). Description: Functional activity: cellular cAMP HTRF assay, antagonism of sulprostone. Type of test: cell-based. To be noted: CHO-K1 cells expressing human EP3; cAMP with 10 nM sulprostone and forskolin; geometric mean. The method, then: The functional activity of two Examples was determined by measuring the effect on cellular cAMP levels, under conditions whereby antagonism of the EP3 receptor could be measured. Compound activity was expressed as an IC50 value, defined as the concentration of compound required to decrease agonist (sulprostone) activity by 50%. CHO-K1 cells expressing human prostaglandin E3 receptor (EP3, DiscoveRx #95-0159C2) were maintained in Ham's F-12 Nutrient Mixture (Invitrogen #11765-054) containing L-Glutamine (Gibco #25030-081), Geneticin (Gibco #10131-027), Pen Strep (Gibco #15070-063) and 10% heat-inactivated fetal bovine serum (Sigma #F4135). […] Cellular cAMP levels were determined using a Homogeneous Time-Resolved Fluorescence (HTRF) cAMP detection kit (cAMP HI-Range Assay Kit; CisBio #62AM6PEJ). […] The assay plates were then held at r.t. and after 60 minutes, changes in the HTRF signal were read with an Envision 2104 multi-label plate reader using excitation of 330 nm and emissions of 615 and 665 nm. Raw data were converted to nM cAMP by interpolation from a cAMP standard curve (as described in the cAMP detection kit protocol) and IC50 determinations were made from the response curves analyzed with a curve fitting program, similar to GraphPad PRISM® and using a 4-parameter logistic dose response equation. […]
Chain of human prostaglandin E3 receptor (EP3) (P43115 whole entry): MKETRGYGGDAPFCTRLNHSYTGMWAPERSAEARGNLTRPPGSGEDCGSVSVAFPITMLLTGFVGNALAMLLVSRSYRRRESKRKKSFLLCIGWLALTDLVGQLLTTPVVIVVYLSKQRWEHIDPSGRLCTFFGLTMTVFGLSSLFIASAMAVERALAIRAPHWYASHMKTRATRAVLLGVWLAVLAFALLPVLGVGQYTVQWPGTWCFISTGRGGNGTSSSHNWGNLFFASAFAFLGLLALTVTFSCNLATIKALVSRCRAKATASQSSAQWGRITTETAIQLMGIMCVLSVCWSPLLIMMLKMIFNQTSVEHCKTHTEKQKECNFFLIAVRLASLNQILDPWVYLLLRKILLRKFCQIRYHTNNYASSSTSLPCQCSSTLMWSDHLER
A general note: In TR-FRET formats the signal depends on donor and acceptor labels being close together.

Another test concerns the target human EP3 receptor (Homo sapiens (Human), UniProt P43115). The test can be described thus: EP3 Radioligand SPA Binding Assay. The conditions noted are these: [3H]-PGE2 displacement, Millipore EP3 Chem1 membranes; geometric mean; Ki from IC50 by Cheng-Prusoff. Here is the method:
To measure the ability of test compounds in the present invention to bind to the human EP3 receptor, and therefore have the potential to antagonize PGE2 activity, radioligand displacement assays were performed. Compound affinity was expressed as a Ki value, defined as the concentration of compound required to decrease [^3H] PGE2 binding by 50% for a specific membrane batch at a given concentration of radioligand.
Test compounds were half log serially diluted in 100% DMSO (J. T. Baker #922401). 1 μL of each compound was added to appropriate wells of a 384-well plate (Matrix Cat #4322). Unlabeled PGE2 (Tocris Cat #2296) at a final concentration of 1 μM was used to determine non-specific binding. 1 μL of 100% DMSO (J. T. Baker #922401) was used to determine total binding. Millipore EP3 Chem1 membranes (prepared in-house from cell paste derived from the Millipore ChemiSCREEN™ Human Recombinant EP3 Prostanoid Receptor Calcium-Optimized Stable Cell Line (Millipore Cat # HTS092C, http://www.millipore.com/catalogue/item/hts092c)) were thawed and diluted in binding buffer (50 mM Hepes pH 7.4 (Lonza Cat #17-737), 5 mM MgCl2 (Sigma-M1028), and 0.1% BSA (Sigma A-7409)) to a final concentration of 1 μg/25 μL. 25 μL of diluted membranes were added to prepared compound plates. WGA coated PVT SPA Beads (Perkin Elmer Cat # RPNQ0060) were diluted in binding buffer to a concentration of 4 μg/ul, and 25 μL of the SPA bead mixture was then added to each well for a final assay concentration of 100 μg/well. [^3H]-PGE2 (Perkin Elmer Cat #NET428) was diluted in binding buffer to a concentration of […], and […] was added to all wells for a final assay concentration of 1.125 nM. Plates were incubated for 30 minutes at r.t. (approximately 25° C.) with shaking. Radioactivity associated with each well was measured after a 10 hour incubation using a Wallac Trilux MicroBeta plate-based scintillation counter and a normalized protocol at 1 minute read/well. The Kd for [^3H]-PGE2 was determined by carrying out saturation binding, with data analysis by non-linear regression, fit to a one-site hyperbola (GraphPad Prism®). IC50 determinations were made from competition curves, analyzed with a proprietary curve fitting program (SIGHTS), similar to GraphPad PRISM® and a 4-parameter logistic dose response equation. Ki values were calculated from IC50 values, using the Cheng-Prusoff equation.
Table 5 below provides the Ki values of Examples for the binding affinity against human EP3 in accordance with the above-described assay. Results are reported as geometric mean Ki values, where the example is identified as a free base or designated salt that is made as a solution for the experiment and N is the number of samples tested for that example and is the sum of the forms identified with the corresponding number of the respective form in parentheses.

Chain of human EP3 receptor (P43115 whole entry): as above

A word on the pIC50: it is the negative decadic logarithm of the IC50, by convention in mol/L. Read a high pIC50 as a small IC50. As a reminder, the pKi is the negative decadic logarithm of the Ki, by convention in mol/L. Low values mean a large Ki, high ones a small Ki. Compound `Cc1cccc2ncc(-c3ccc([C@@]4(C)CCCNC4=O)c(=O)[nH]3)cc12` [Example 1, (R)-3-(3-Methyl-2-oxopiperidin-3-yl)-6-(5-methylquinolin-3-yl)pyridin-2(1H)-one] showed a pIC50 in test [1] of 7.51. On human EP3 receptor, this compound showed a pKi of 8.48.
Regarding `Cc1cc(-c2ccc([C@@]3(C)CCCNC3=O)c(=O)[nH]2)cc2ncccc12` [Example 2, (R)-3-(3-Methyl-2-oxopiperidin-3-yl)-6-(5-methylquinolin-7-yl)pyridin-2(1H)-one], the pKi at human EP3 receptor is 8.14.
As for `CCc1cc(-c2ccc([C@@]3(C)CCCNC3=O)c(=O)[nH]2)cc2ncccc12` [Example 3, (R)-6-(5-Ethylquinolin-7-yl)-3-(3-methyl-2-oxopiperidin-3-yl)pyridin-2(1H)-one], at human EP3 receptor, the pKi was 8.34. Against the preceding compound, the pKi is 0.20 log units higher.
Still for that read-out and setting: as for `C[C@]1(c2ccc(-c3cc(Cl)c4cccnc4c3)[nH]c2=O)CCCNC1=O` [Example 4, (R)-6-(5-Chloroquinolin-7-yl)-3-(3-methyl-2-oxopiperidin-3-yl)pyridin-2(1H)-one], the figure is 8.05; as for `C[C@]1(c2ccc(-c3cc(C4CC4)c4cccnc4c3)[nH]c2=O)CCCNC1=O` [Example 5, (R)-6-(5-Cyclopropylquinolin-7-yl)-3-(3-methyl-2-oxopiperidin-3-yl)pyridin-2(1H)-one], 8.14; as for `C[C@]1(c2ccc(-c3cc(F)c4cccnc4c3)[nH]c2=O)CCCNC1=O` [Example 6, (R)-6-(5-Fluoroquinolin-7-yl)-3-(3-methyl-2-oxopiperidin-3-yl)pyridin-2(1H)-one], 7.31.
`Cc1cccc2ncc(-c3ccc([C@@]4(C)CCNC4=O)c(=O)[nH]3)cc12` [Example 7, (R)-3-(3-Methyl-2-oxopyrrolidin-3-yl)-6-(5-methylquinolin-3-yl)pyridin-2(1H)-one] had a pIC50 in test [1] of 7.47. In addition, the pKi on human EP3 receptor is 7.73.
